Earlier results as cited in US20040268437A1, “Method for biosynthesizing the serotonin derivatives in plants” (CHONNAM NATIONAL UNIVERSITY, priority 2003, published 2004).

Experiments:
[1] = system: potato THT; details: potato THT; cited from earlier work
[2] = system: recombinant hot pepper THT; details: hydroxycinnamic acid derivative substrates; cited from earlier work

Structure (SMILES)	Use as amine substrate [1]	Maximum reaction velocity (Vmax) relative to coumaroyl-CoA [2] [times]
N=C(N)NCCCCN [agmatine]	not used as a substrate	
NCCCCCN [cadaverin]	not used as a substrate	
CC(C)(COP(=O)(O)OP(=O)(O)OC[C@H]1O[C@@H](n2cnc3c(N)ncnc32)[C@H](O)[C@@H]1OP(=O)(O)O)[C@@H](O)C(=O)NCCC(=O)NCCSC(=O)C=Cc1ccccc1 [cinnamoyl-CoA]		15
NCCCCN [putricine]	not used as a substrate	
NCCCCNCCCN [spermidine]	not used as a substrate	
NCCCNCCCCNCCCN [spermine]	not used as a substrate	
